Data from PubChem BioAssay AID602184 (Broad Institute, 2012).
Active and inactive are the calls of the source.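 Rule for the calls: active = compounds whose fitted half-effect growth-inhibition concentration is no more than twice their top tested dose; inconclusive = flat curve showing moderate inhibition, or an unreliable curve fit; inactive = the rest.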

Legend:
[1] = system: S. cerevisiae growth in glycerol medium, OD600, 48 h; test: yeast respiratory growth inhibition – glycerol medium, OD600, dry powder, dose response (AID 602184)
[2] = as above; details: S. cerevisiae growth in glycerol medium, OD600, 48 h

| Structure (SMILES) | AC50 [1] [µM] | further results |
| --- | --- | --- |
| CCCC(=O)NC(c1cccs1)c1cc(Cl)c2cccnc2c1O (centres undefined) | 10.6 | – |
| O=C(Nc1nc(-c2ccc3c(c2)CCCC3)cs1)c1ccccc1 | – | activity change, negative = growth inhibition ([2]; at 19.5 µM (top of the series)): -4.76% (inactive) |
| O=C(Nc1nc(-c2ccccn2)cs1)c1ccc(Cl)s1 | 1.55 | – |
| O=C(Nc1nc(-c2ccccc2)cs1)c1ccc(Br)s1 | – | activity change, negative = growth inhibition ([2]; at 19.5 µM (top of the series)): -11.7% (inactive) |
| CCOC(=O)N1C(=O)C2(CCCCC2)N(c2ccc(C)cc2)C1=S | < 0.08 | – |
| Oc1c(CN2CCN(c3ccccc3)CC2)cc(Cl)c2cccnc12 | – | activity change, negative = growth inhibition ([2]; at 23.5 µM (top of the series)): -52.9% (inactive) |
| O=C(Nc1nnc(-c2ccc3c(c2)CCCC3)o1)c1ccc(Cl)cc1Cl | 14.8 | – |
| C/C(=N\NC(=O)c1cc2ccccc2cc1O)c1ccccn1 | 14.4 | – |
| O=C(Oc1c(Cl)cc(Cl)c2cccnc12)c1ccco1 | 0.64 | – |
| C=CCNC(=S)N/N=C(\C)c1ccccn1 | 8.88 | – |
| O=C(Nc1nnc(-c2ccc3c(c2)CCCC3)o1)c1ccccc1 | 16.1 | – |
| Oc1c(CN2CCc3ccccc3C2)cc(Cl)c2cccnc12 | 8.17 | – |
| COc1ccc(-c2nnc(NC(=O)c3ccc(S(=O)(=O)N4CCCc5ccccc54)cc3)o2)cc1 | – | activity change, negative = growth inhibition ([2]; at 19.5 µM (top of the series)): -22.8% (inactive) |
| Cc1ccc(C(=O)Nc2nnc(-c3ccccc3)o2)cc1C | – | activity change, negative = growth inhibition ([2]; at 19.5 µM (top of the series)): -3.03% (inactive) |
| NC(=O)c1cccc(C(=O)Nc2nc(-c3ccc4c(c3)CCCC4)cs2)c1 | – | activity change, negative = growth inhibition ([2]; at 19.5 µM (top of the series)): -13.9% (inactive) |
| O=C(Nc1nc(-c2ccccn2)cs1)c1ccc(Br)s1 | 1.01 | – |
| Oc1c(C(c2ccccc2Cl)N2CCCCC2)ccc2cccnc12 (centres undefined) | 21.8 | – |
| Cc1ccc(-c2nc3c(Cl)cc(Cl)cc3c(=O)n2O)cc1 | 3.71 | – |
| Cc1cc(C)n(-c2nc3ccccc3c(=O)n2OCC#N)n1 | – | activity change, negative = growth inhibition ([2]; at 19.5 µM (top of the series)): -14.8% (inactive) |
| O=C(Nc1nc(-c2ccccn2)cs1)c1ccccc1 | 18.9 | – |
| CN1CCN(C(c2ccc(C(F)(F)F)cc2)c2ccc3cccnc3c2O)CC1 (centres undefined) | 3.1 | – |
| Cc1ccc(C(=O)Nc2nc(-c3ccccn3)cs2)cc1 | 6.34 | – |
| O=C(NNC(=S)Nc1ccc(Cl)c(Cl)c1)c1ccccn1 | 12.7 | – |
| Oc1c(C(c2ccc(Cl)cc2)N2CCCC2)ccc2cccnc12 (centres undefined) | – | activity change, negative = growth inhibition ([2]; at 19.5 µM (top of the series)): -8.5% (inactive) |
